Several values for one entry are separate records, joined by “and”; a condition that tells them apart may be missing. Identical values can stand only once. Counter-ions that a name gives are not always drawn.
Columns and labels:
[1] = target: T1, human neurokinin-3 receptor (Homo sapiens, UniProt P29371); assay: Binding affinity to human NK-3 receptor expressed in CHO cells (inhibition of [125I]-[Me-Phe7]-NKB or [3H]-Senktide binding); settings: human neurokinin-3 receptor expressed in CHO cell lines; read-out: Binding affinity, Ki (nM) hNK-3-CHO
T1 construct: expressed in transfected cells; host or cells: CHO
T1 sequence (P29371 1-465): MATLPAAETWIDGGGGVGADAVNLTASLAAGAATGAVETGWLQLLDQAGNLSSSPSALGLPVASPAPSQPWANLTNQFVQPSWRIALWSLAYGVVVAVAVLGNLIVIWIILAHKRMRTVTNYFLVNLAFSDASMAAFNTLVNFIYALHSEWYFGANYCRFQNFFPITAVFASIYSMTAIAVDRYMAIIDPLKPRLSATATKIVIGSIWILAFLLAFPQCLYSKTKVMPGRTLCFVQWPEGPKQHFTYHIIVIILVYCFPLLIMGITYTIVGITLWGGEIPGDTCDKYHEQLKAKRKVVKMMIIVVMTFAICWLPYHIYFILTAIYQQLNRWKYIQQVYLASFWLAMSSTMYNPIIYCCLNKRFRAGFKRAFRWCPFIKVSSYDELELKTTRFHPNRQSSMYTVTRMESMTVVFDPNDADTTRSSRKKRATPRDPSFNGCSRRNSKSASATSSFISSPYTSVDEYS
Procedure: The activity of the compounds of the present invention, as NK3 ligands, is determined by their ability to inhibit the binding of the radiolabelled NK3 ligands, [^125I]-[Me-Phe^7]-NKB or [^3H]-Senktide, to guinea-pig and human NK3 receptors (Renzetti et al, 1991, Neuropeptide, 18, 104-114; Buell et al, 1992, FEBS, 299(1), 90-95; Chung et al, 1994, Biochem. Biophys. Res. Commun., 198(3), 967-972).
The binding assays utilized allow the determination of the concentration of the individual compound required to reduce by 50% the [^125I]-[Me-Phe^7]-NKB and [^3H]-Senktide specific binding to NK3 receptor in equilibrium conditions (IC50).
Binding assays provide for each compound tested a mean IC50 value of 2-5 separate experiments performed in duplicate or triplicate. […] The NK3-antagonist activity of the compounds of the present invention is determined by their ability to inhibit senktide-induced contraction of the guinea-pig ileum (Maggi et al, 1990, Br. J. Pharmacol., 101, 996-1000) and rabbit isolated iris sphincter muscle (Hall et al., 1991, Eur. J. Pharmacol., 199, 9-14) and human NK3 receptors-mediated Ca^++ mobilization (Mochizuki et al, 1994, J. Biol. Chem., 269, 9651-9658). Guinea-pig and rabbit in-vitro functional assays provide for each compound tested a mean KB value of 3-8 separate experiments, where KB is the concentration of the individual compound required to produce a 2-fold rightward shift in the concentration-response curve of senktide. Human receptor functional assay allows the determination of the concentration of the individual compound required to reduce by 50% (IC50 values) the Ca^++ mobilization induced by the agonist NKB. In this assay, the compounds of the present invention behave as antagonists.

[2] = target: T2, human neurokinin-2 receptor (Homo sapiens, UniProt P21452); assay: Binding affinity to human NK-2 receptor expressed in CHO cells (inhibition of [125I]-NKA or [3H]-NKA binding); settings: human neurokinin-2 receptor expressed in CHO cell lines; read-out: Binding affinity, Ki (nM) hNK-2-CHO
T2 construct: expressed in transfected cells; host or cells: CHO
T2 sequence (P21452 1-398): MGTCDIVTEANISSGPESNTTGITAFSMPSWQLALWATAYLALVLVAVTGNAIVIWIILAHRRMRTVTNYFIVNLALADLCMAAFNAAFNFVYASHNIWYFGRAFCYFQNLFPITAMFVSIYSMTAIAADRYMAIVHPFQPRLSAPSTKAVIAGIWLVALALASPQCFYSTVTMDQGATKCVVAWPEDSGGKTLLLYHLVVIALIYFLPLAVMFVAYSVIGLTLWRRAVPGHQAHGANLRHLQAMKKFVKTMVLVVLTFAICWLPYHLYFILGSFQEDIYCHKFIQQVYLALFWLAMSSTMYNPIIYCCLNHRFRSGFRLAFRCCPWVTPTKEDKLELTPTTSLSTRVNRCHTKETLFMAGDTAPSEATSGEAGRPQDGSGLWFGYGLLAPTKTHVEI
Procedure: The activity of the compounds of the present invention, as NK-2 ligands, is determined by their ability to inhibit the binding of the radiolabelled NK-2 ligands, [^125I]-NKA or [^3H]-NKA, to human NK-2 receptors (Aharony et al, 1992, Neuropeptide, 23, 121-130).
The binding assays utilized allow the determination of the concentration of the individual compound required to reduce by 50% the [^125I]-NKA and [^3H]-NKA specific binding to NK2 receptor in equilibrium conditions (IC50).
Binding assays provide for each compound tested a mean IC50 value of 2-5 separate experiments performed in duplicate or triplicate. […] The NK-2-antagonist activity of the compounds of the present invention is determined by their ability to inhibit human NK-2 receptor-mediated Ca^++ mobilization (Mochizuki et al, 1994, J. Biol. Chem., 269, 9651-9658). Human receptor functional assay allows the determination of the concentration of the individual compound required to reduce by 50% (IC50 values) the Ca^++ mobilization induced by the agonist NKA. In this assay, the compounds of the present invention behave as antagonists.

melting point | Ki [1] [nM] | Ki [2] [nM] | Structure (SMILES)
115 to 117 °C | 2.9 | 44.9 | CC[C@H](NC(=O)c1c(CCN2CCN(c3cccc(C(F)(F)F)c3)CC2)c(-c2ccccc2)nc2ccccc12)c1ccccc1 [Example 22]
195 to 198 °C |  |  | CC[C@H](NC(=O)c1c(CN2CCN(C)CC2)c(-c2ccccc2)nc2ccccc12)c1ccccc1 (as salt: HCl) [Example 11]
140 °C (dec.) |  |  | CC[C@H](NC(=O)c1c(CN2CCCCC2)c(-c2ccccc2)nc2ccccc12)c1ccccc1 (as salt: HCl) [Example 8]
 | 0.9 | 24.1 | CC[C@H](NC(=O)c1c(CN2CCCCC2)c(-c2ccccc2)nc2ccccc12)c1ccccc1 [Example 8]
170 to 173 °C | 0.8 | 18.2 | CC[C@H](NC(=O)c1c(CN2CCC3(CC2)OCCO3)c(-c2ccccc2)nc2ccccc12)c1ccccc1 [Example 9, (S)-N-(α-ethylbenzyl)-3-[(1,4-dioxa-8-azaspiro[4.5]decan-8-yl)methyl]-2-phenylquinoline-4-carboxamide]
90 to 95 °C | 3.2 | 68.8 | CC[C@H](NC(=O)c1c(CN2CC[C@H](O)C2)c(-c2ccccc2)nc2ccccc12)c1ccccc1 [Example 32, (S)-N-(α-ethylbenzyl)-3-[(3-(S)-hydroxy)pyrrolidin-1-ylmethyl]-2-phenylquinoline-4-carboxamide]
178 to 182 °C |  |  | CC[C@H](NC(=O)c1c(CN2CCN(C(C)C)CC2)c(-c2ccccc2)nc2ccccc12)c1ccccc1 (as salt: HCl) [Example 20]
100 to 105 °C | 0.9 | 3.3 | CC[C@H](NC(=O)c1c(CCCN2CCN(c3ccc(Cl)cc3)CC2)c(-c2ccccc2)nc2ccccc12)c1ccccc1 [Example 24]
117 to 120 °C | 3.3 | 56.7 | CC(C)[C@H](NC(=O)c1c(CN(C)C)c(-c2ccccc2)nc2ccccc12)c1ccccc1 [Example 41]
156 to 160 °C | 3.9 | 143 | CC[C@H](NC(=O)c1c(CN2CCC3(CCCC3)CC2)c(-c2ccccc2)nc2ccccc12)c1ccccc1 [Example 31]
75 to 78 °C | 1.7 | 12.7 | CC[C@H](NC(=O)c1c(CN2CCN(CC)CC2)c(-c2ccccc2)nc2ccccc12)c1ccccc1 [Example 36]
83 °C (dec.) | 0.9 | 73.2 | CC[C@H](NC(=O)c1c(CN2CCC[C@@H]2CO)c(-c2ccccc2)nc2ccccc12)c1ccccc1 [Example 5]
102 to 105 °C | 1.2 | 9.7 | CC[C@H](NC(=O)c1c(CCCN2CCN(c3cccc(C(F)(F)F)c3)CC2)c(-c2ccccc2)nc2ccccc12)c1ccccc1 [Example 23]
 | 0.3 | 3.8 | CC[C@H](NC(=O)c1c(CCCN2CCN(c3ccccc3)CC2)c(-c2ccccc2)nc2ccccc12)c1ccccc1 [Example 13]
182 to 183 °C | 0.9 | 6.4 | CC[C@H](NC(=O)c1c(CCCN2C(=O)c3ccccc3C2=O)c(-c2ccccc2)nc2ccccc12)c1ccccc1 [Example 21]
> 95 °C | 1.5 | 42.7 | CC[C@H](NC(=O)c1c(CN2CCC(=O)CC2)c(-c2ccccc2)nc2ccccc12)c1ccccc1 [Example 17, (S)-N-(α-Ethylbenzyl)-3-[(4-oxopiperidin-1-yl)methyl]-2-phenylquinoline-4-carboxamide]
 | 0.8 | 35.6 | CC[C@H](NC(=O)c1c(CCN2CCN(C(C)C)CC2)c(-c2ccccc2)nc2ccccc12)c1ccccc1 [Example 39]
203 to 207 °C | 2.3 | 44.6 | CC[C@H](NC(=O)c1c(CN2CCC(O)CC2)c(-c2ccccc2)nc2ccccc12)c1ccccc1 [Example 18, (S)-N-(α-Ethylbenzyl)-3-[(4-hydroxypiperidin-1-yl)methyl]-2-phenylquinoline-4-carboxamide]
167 to 170 °C | 1.2 | 65.5 | CC[C@H](NC(=O)c1c(CN(C)CCO)c(-c2ccccc2)nc2ccccc12)c1ccccc1 [Example 6]
75 to 80 °C | 0.5 | 1.5 | CC[C@H](NC(=O)c1c(CCCN2CCC(c3ccccc3)CC2)c(-c2ccccc2)nc2ccccc12)c1ccccc1 [Example 25]
151 to 153 °C | 1.1 | 22.2 | CC[C@H](NC(=O)c1c(CCCCN2CCN(c3ccccc3)CC2)c(-c2ccccc2)nc2ccccc12)c1ccccc1 [Example 14]
 | 1.8 | 5.7 | CC[C@H](NC(=O)c1c(CN2CCN(C(C)C)CC2)c(-c2ccccc2)nc2ccccc12)c1ccccc1 [Example 20]
125 to 130 °C | 1 | 1.2 | CC(C)[C@H](NC(=O)c1c(CN2CCN(C(C)C)CC2)c(-c2ccccc2)nc2ccccc12)c1ccccc1 [Example 43]
180 °C (dec.) |  |  | CC[C@H](NC(=O)c1c(CCCN2CCN(c3ccccc3)CC2)c(-c2ccccc2)nc2ccccc12)c1ccccc1 (as salt: HCl) [Example 13]
158 to 160 °C | 0.8 | 0.9 | CC[C@H](NC(=O)c1c(CN2CCN(CCc3ccccc3)CC2)c(-c2ccccc2)nc2ccccc12)c1ccccc1 [Example 37]
94 to 98 °C and 94.5 to 98 °C |  |  | CC[C@H](NC(=O)c1c(CN2CCNCC2)c(-c2ccccc2)nc2ccccc12)c1ccccc1 [Example 28, (S)-N-(α-Ethylbenzyl)-3-[(piperazin-1-yl)methyl]-2-phenylquinoline-4-carboxamide]
85 °C (dec.) | 0.4 | 1.7 | CC[C@H](NC(=O)c1c(CN2CCN(Cc3ccccc3)CC2)c(-c2ccccc2)nc2ccccc12)c1ccccc1 [Example 26, (S)-N-(α-ethylbenzyl)-3-[(4-benzylpiperazin-1-yl)methyl]-2-phenylquinoline-4-carboxamide]
 | 1.9 | 39 | CC[C@H](NC(=O)c1c(CCN2CCN(c3ccccc3)CC2)c(-c2ccccc2)nc2ccccc12)c1ccccc1 [Example 12]
 | 4 | 66.8 | CC[C@H](NC(=O)c1c(CN2CCN(C)CC2)c(-c2ccccc2)nc2ccccc12)c1ccccc1 [Example 11]
206 °C (dec.) |  |  | CC[C@H](NC(=O)c1c(CCN2CCN(c3ccccc3)CC2)c(-c2ccccc2)nc2ccccc12)c1ccccc1 (as salt: HCl) [Example 12]

From patent publication US20010012846A1, “Quinoline-4-carboxamide derivatives as NK-2 and NK-3 receptor antagonists” (priority 1997, published 2001)
